“Also recorded” adds a separate entry of the source. Like-named read-outs stand apart in the source and are kept apart here.
What was measured:
mouse [1] = system: mouse; design: species or system male CF-1 mice; unit not given here; details: in vivo
mouse [2] = system: mouse; design: species or system male CF-1 mice; details: in vivo
dogs [3] = details: dog, in vivo
mouse [4] = details: in vivo; cited from earlier work
[5] = system: flurothyl induced convulsions; details: in vivo; cited from earlier work
mouse [6] = details: in vivo
dogs [7] = details: dog, in vivo; cited from earlier work
[8] = in vivo; cited from earlier work

SMILES: COC(C(F)F)C(F)F [XXIII]
- MOUSE AC50 (mouse [1]): 1.4

SMILES: FC(F)OCC(F)(F)C(F)(F)F [II, Difluoromethyl 2,2,3,3,3-pentafluoropropyl ether]
- MOUSE […]., VOL. % (mouse [2]): 1.4 VOL. %
- […] (type of convulsions) (mouse [2]): CLONIC AND TONIC CONVULSIONS, CATALEPSY

SMILES: FC(F)OC(F)(C(F)F)C(F)F [IV, Difluoromethyl 1,1,2,3,3-pentafluoro-2-propyl ether]
- convulsant effect in dogs (dogs [3]): OPISTHOTONOID
- MOUSE […]., VOL. % (mouse [2]): 1.2 VOL. %
- […] (type of convulsions) (mouse [2]): C[…] SEDATION

SMILES: FC(F)OC(C(F)F)C(F)(F)F (stereo not drawn) [XI]
- MOUSE AC50 (mouse [1]): 0.84

SMILES: FC(F)OC(F)(F)C(F)C(F)(F)F (stereo not drawn) [III, Difluoromethyl 1,1,2,3,3,3-hexafluoropropyl ether]
- MOUSE […]., VOL. % (mouse [2]): 2.0 VOL. %

SMILES: FCOC(F)(F)C(F)C(F)(F)F (stereo not drawn) [XIII]
- MOUSE AC50 (mouse [1]): 2.1

SMILES: COC(C(F)F)C(F)(F)F (stereo not drawn) [XXII]
- MOUSE AC50 (mouse [1]): 1.5

SMILES: FC(F)OC(F)C(F)(F)C(F)F (stereo not drawn) [VIII]
- convulsant effect in dogs (dogs [3]): NON[…] DOGS
- MOUSE AC50 (mouse [1]): 0.61

SMILES: FC(F)(F)COCC(F)(F)F [VII, flurothyl]
- MOUSE […]., VOL. % (mouse [4]): ≤ 0.25 VOL. %
- […] (type of convulsions) (mouse [2]): CLONIC AND TONIC CONVULSIONS
- time to clonic and tonic convulsions (mouse [2]): 30 s

SMILES: COC(F)(F)C(F)C(F)(F)F (stereo not drawn) [XVIII, methyl 1,1,2,3,3,3-hexafluoropropyl ether]
- MOUSE AC50 (mouse [1]): 3.9

SMILES: FC(F)OC(C(F)(F)F)C(F)(F)F [X]
- convulsant effect in dogs (dogs [3]): NON[…] DOGS
- MOUSE AC50 (mouse [1]): 2.5

SMILES: FCOCC(F)(F)C(F)(F)F [V, Fluoromehtyl 2,2,3,3,3-pentafluoropropyl ether]
- MOUSE […]., VOL. % (mouse [2]): 1.5 VOL. %
- […] (type of convulsions) (mouse [2]): METRAZOLE-LIKE CONVULSIONS

SMILES: COC(C(F)(F)F)C(F)(F)F [XXI]
- convulsant effect in dogs (dogs [3]): NON[…] DOGS
- MOUSE AC50 (mouse [1]): 2.2
- antagonism to flurothyl induced convulsions [5]: ANTAGONIST

SMILES: COCC(F)(F)C(F)F [XX]
- MOUSE AC50 (mouse [1]): 2.5

SMILES: COC(F)(F)C(F)(F)C(F)(F)F [XVII]
- cause of death (mouse [6]): DEATH DUE TO ANOXIA

SMILES: FC(F)OCC(F)(F)C(F)F [I, Difluoromethyl 2,2,3,3-tetrafluoropropyl ether]
- MOUSE […]., VOL. % (mouse [2]): 1.0 VOL. %
- […] (type of convulsions) (mouse [2]): CLONIC CONVULSIONS

SMILES: FC(F)OC(F)C(F)(F)C(F)(F)F (stereo not drawn) [IX]
- MOUSE AC50 (mouse [1]): 4.3

SMILES: FCOC(F)(C(F)F)C(F)(F)F (stereo not drawn) [XIV]
- convulsant effect in dogs (dogs [3]): NON[…] DOGS
- MOUSE AC50 (mouse [1]): 2.5

SMILES: FCOC(C(F)(F)F)C(F)(F)F [XV]
- convulsant effect in dogs (dogs [3]): NON[…] DOGS
- MOUSE AC50 (mouse [1]): 1.4

SMILES: COCC(F)(F)C(F)(F)F [XIX, methyl 2,2,3,3,3-pentafluoropropyl ether]
- MOUSE AC50 (mouse [1]): 11
- effect in dogs (dogs [7]): EXTENSOR RIGIDITY OF HIND LEGS; also recorded: TREMORS

SMILES: FC(F)C(F)(F)COC(F)(F)F [VI]
- MOUSE […]., VOL. % (mouse [2]): ≤ 0.5 VOL. %
- convulsions and death [8]: VIOLENT C[…] DEATH
- time to violent convulsions and death [8]: 30 to 120 s

SMILES: FCOC(C(F)F)C(F)(F)F (stereo not drawn) [XVI]
- MOUSE AC50 (mouse [1]): 0.84

SMILES: FC(F)OC(C(F)F)C(F)F [XII]
- MOUSE AC50 (mouse [1]): 0.64
